Data reported in article PMC7409209, “Biosynthesis and Antimicrobial Activity of Pseudodesmin and Viscosinamide Cyclic Lipopeptides Produced by Pseudomonads Associated with the Cocoyam Rhizosphere” (Microorganisms, 2020).

Tests used:
P. myriotylum CMR1 = assay: Fungal plug-CLP droplet assay (growth inhibition and microscopy); type: cell-based, Pythium myriotylum; settings: for Effect on growth of P. myriotylum mycelium (inhibition zone): all concentrations tested (100 nM, 1, 10, 25, 50 µM), 48 h, 28 °C, n = 5
From the text: (§1) The cocoyam rhizosphere isolate, P. myriotylum CMR1 [42], was maintained on Potato Dextrose Agar (PDA) for three days prior to use. The bean root rot pathogen, R. solani AG2-2 CuHav-Rs18 [43], was maintained on the same media for four days before use. The fungal plug-CLP method was used. Sterile microscopic glass slides were covered with a thin, flat layer of water agar (Bacto agar; Difco) and placed in a plastic Petri dish containing a moist sterile filter paper. An agar plug (diameter = 5 mm) taken from an actively growing colony of R. solani or P. myriotylum and placed on top at the center of each glass slide. Stock solutions of purified CLPs were made by dissolution in Dimethyl sulfoxide (DMSO). Serial dilutions of […], 1 µM, 10 µM, 25 µM and 50 µM were prepared using sterile milliQ water. For each dilution, two droplets (15 μL each) of purified CLP (WLIP, pseudodesmin or viscosinamide) were placed on two sides of the glass slide (about 2 cm from the fungal plug). For the control treatment, 0.5% DMSO was used. All plates were incubated for 48 h (P. myriotylum) or 72 h (R. solani) at 28 °C before evaluation under an Olympus BX51 microscope. The images were processed using TopView software. Using a vernier caliper, the inhibition zones were measured as the distance between the CLP droplet and the growing edge of the pathogen. The growth inhibition effect of pure compounds towards both plant pathogens was expressed relative to the mycelial growth in the control. Five replicates of each slide were used. Representative photos are shown.

[1] = test system: R. solani AG2-2 CuHav-Rs18; assay: as above; type: cell-based
From the text: as §1

P. myriotylum = assay: Pathogen perception experiment (one CLP droplet); type: cell-based, Pythium myriotylum; settings: one 15 µL CLP droplet 2 cm from the plug, other side blank
Experimental: (§2) For pathogen perception experiments, the afore-described plug-CLP droplet method was employed with slight modifications. Only one 15 µL CLP droplet was introduced 2 cm away from the fungal plug, while the other side of the plug remained blank. Results were assessed by observing whether or not the pathogen only grew towards the CLP droplet or in both directions. Pathogen-CLP interaction was evaluated microscopically and pictures were taken.

R. solani [2] = assay: Pathogen perception experiment (one CLP droplet); type: cell-based; settings: one 15 µL CLP droplet 2 cm from the plug, other side blank
Experimental: as §2

[3] = test system: six Gram-positive bacterial strains; settings: cited from earlier work
From the text: Viscosinamide and pseudodesmin CLPs are neutral, have similar amino acid (AA) composition and only differ from each other by the stereochemistry on the 5th AA [30]. […] A recent study tested the antibacterial activity of 20 novel synthesized pseudodesmin A analogs and reported a mode of action determined by the macrocycle closed by an ester bond and the critical length of the β-OH fatty acid chain capping the N-terminus.

Pythium ultimum = settings: cited from earlier work
From the text: (§3) Antimicrobial activities of Viscosin-group CLPs have been reported, including antibacterial activity. […] When challenged with viscosinamide, cellular changes were detected in the mycelia of both P. ultimum and R. solani.

R. solani [4] = settings: cited from earlier work
From the text: as §3

[5] = purified viscosinamide produced by P. fluorescens DR54

For “White Line-Inducing Principle [WLIP, reference compound]”, the “Effect on growth of P. myriotylum mycelium (inhibition zone)” value (P. myriotylum CMR1) was “visual inhibition zones that could not be easily measured”, the “Hyphal morphology of P. myriotylum (microscopy)” value (P. myriotylum CMR1; concentration not specified) was “hyphal disintegration, timely evasion and an absence of branching” and the “Visual inhibition zone, R. solani AG 2-2” value ([1]; 100 nM, 72 h, 28 °C) was “slight inhibition zone”. For the same substance, the “Visual inhibition zone, R. solani AG 2-2” value ([1]; highest concentration (50 µM)) was “strong inhibition”, the “Hyphal morphology of R. solani (microscopy)” value (“Hyphal morphology of R. solani” below) ([1]; hyphae growing towards the compound, concentration not specified) was “increased branching as they grew in the direction of the compound” and the “Visual inhibition zone, R. solani AG 2-2” value ([1]; intermediate concentrations) was “unclear”. The “Hyphal morphology of R. solani” value ([1]; upon contact with the compound, concentration not specified) was “disintegration of hyphae was observed”, the “Perception of the CLP by P. myriotylum (direction of growth)” value (P. myriotylum) was “grew evenly on sides with or without the CLP” and the “Perception of the CLP by R. solani (direction of growth)” value (R. solani [2]) was “appeared not to recognize WLIP but grew towards it until hyphal disintegration occurred”.

In the case of pseudodesmin A, the “Hyphal morphology of P. myriotylum (microscopy)” value (P. myriotylum CMR1; 100 nM, 10 µM and 25 µM) is reported as “increased/hyper branching, hyphal distortion and CLP evasion”, the “Effect on growth of P. myriotylum mycelium (inhibition zone)” value (P. myriotylum CMR1) is reported as “significantly inhibited pathogen growth” and the “Visual inhibition zone, R. solani AG 2-2” value ([1]; 100 nM, 72 h, 28 °C) is reported as “visual inhibition zone”. The “Hyphal morphology of R. solani” value ([1]; 0.1, 1, 10, 25 and 50 µM) was “CLP evasion by the pathogen, hyphae distortion and the disintegration of hyphae with debris observed on the slide”, the “Visual inhibition zone, R. solani AG 2-2” value ([1]; higher concentrations of 1, 10, 25 and 50 µM, compared with 100 nM) was “became enhanced” and the “Antibacterial activity, pseudodesmin compared with viscosinamide” value [3] was “equal activity”.

In the case of viscosinamide A, the “Hyphal morphology of P. myriotylum (microscopy)” value (P. myriotylum CMR1; 50 µM) is reported as “enhanced elongation of primary mycelium and the formation of convergent structures by mycelia”, the “Effect on growth of P. myriotylum mycelium (inhibition zone)” value (P. myriotylum CMR1) is reported as “enhanced the growth of P. myriotylum mycelium without any visible inhibition zone” and the “Hyphal morphology of R. solani” value ([1]; 50 µM) is reported as “mycelia distortion and disintegration was observed in combination with a coordinated formation of melanized structures by multiple primary hyphae”. For the same substance, the “Visual inhibition zone, R. solani AG 2-2” value ([1]; all concentrations tested (100 nM-50 µM)) was “no visual inhibition zone was observed in treatments with viscosinamide except at 10 µM”, the “Hyphal morphology of R. solani” value ([1]; all concentrations tested except 50 µM) was “CLP evasion, hyphal distortion and the rupturing of contents” and the “Antibacterial activity, pseudodesmin compared with viscosinamide” value [3] was “equal activity”. For the same substance, the “Cellular changes in mycelia of P. ultimum” value (Pythium ultimum; fluorescent stains) was “extensive branching, increased hyphal septation and swelling and decreased the hydrophobicity of cell walls and membranes”, the “Effect on growth of Pythium ultimum” value (Pythium ultimum; [5]) was “reduced fungal growth and the aerial mycelium development” and the “Cellular changes in mycelia of R. solani” value (R. solani [4]; fluorescent stains) was “extensive branching, increased hyphal septation and swelling and decreased the hydrophobicity of cell walls and membranes”. For the same substance, the “Effect on growth of R. solani” value (R. solani [4]; [5]) was “reduced fungal growth and the aerial mycelium development”.
